This passage reports IC50 results from US9145392B2, “Imidazole amines as modulators of kinase activity” (Merck Patent GmbH, priority 2011, dated 2015).

The target in one experiment is His-AKT (Full Length) (Homo sapiens (Human), UniProt P31749). The experiment is described as follows: AKT enzyme assay. The conditions noted are these: read-out: IC50 AKT. In kind it is biochemical.
The next experiment deals with P70S6K (T412E mutant) (Homo sapiens (Human), UniProt P23443, T412E). Nature of the experiment: P70S6K enzyme assay. In kind it is biochemical. The conditions noted are these: read-out: IC50 p70S6K. In outline:
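Read-out is the substrate/phosphopeptide ratio from mobility-shift electrophoresis on a LabChip 3000.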

His-AKT (Full Length), sequence (P31749 whole entry): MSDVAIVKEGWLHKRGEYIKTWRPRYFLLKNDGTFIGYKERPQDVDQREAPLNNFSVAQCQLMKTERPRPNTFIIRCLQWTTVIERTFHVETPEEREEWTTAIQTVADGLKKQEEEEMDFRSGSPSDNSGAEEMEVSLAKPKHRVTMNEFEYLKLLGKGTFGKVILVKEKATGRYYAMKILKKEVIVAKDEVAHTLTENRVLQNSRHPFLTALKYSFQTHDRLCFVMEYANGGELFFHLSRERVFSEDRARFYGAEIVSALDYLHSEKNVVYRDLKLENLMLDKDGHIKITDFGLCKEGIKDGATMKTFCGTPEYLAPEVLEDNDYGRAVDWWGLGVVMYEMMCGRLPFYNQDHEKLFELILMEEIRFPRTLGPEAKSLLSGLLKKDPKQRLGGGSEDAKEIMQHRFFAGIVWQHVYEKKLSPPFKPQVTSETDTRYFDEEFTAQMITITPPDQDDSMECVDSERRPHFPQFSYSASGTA
P70S6K (T412E mutant), sequence (P23443 whole entry T412E): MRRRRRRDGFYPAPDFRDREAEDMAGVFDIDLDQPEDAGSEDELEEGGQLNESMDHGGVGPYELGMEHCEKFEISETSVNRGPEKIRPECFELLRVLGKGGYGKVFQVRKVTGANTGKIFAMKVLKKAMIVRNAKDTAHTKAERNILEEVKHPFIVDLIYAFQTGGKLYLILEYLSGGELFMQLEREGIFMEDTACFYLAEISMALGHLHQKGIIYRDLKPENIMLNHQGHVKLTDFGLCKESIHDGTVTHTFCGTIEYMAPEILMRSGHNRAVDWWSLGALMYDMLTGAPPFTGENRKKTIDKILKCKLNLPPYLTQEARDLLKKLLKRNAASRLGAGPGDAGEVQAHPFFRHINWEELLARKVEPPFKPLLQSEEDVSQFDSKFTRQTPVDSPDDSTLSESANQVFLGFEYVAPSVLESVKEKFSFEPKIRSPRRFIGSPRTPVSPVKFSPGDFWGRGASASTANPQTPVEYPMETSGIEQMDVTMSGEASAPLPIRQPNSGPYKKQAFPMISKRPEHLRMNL

As to `CCOc1c(N)ncnc1N1CCC(c2nc(-c3ccc(F)c(C)c3)cn2CCO)CC1` [Compound 396, 2-[2-[1-(6-Amino-5-ethoxy-pyrimidin-4-yl)-piperidin-4-yl]-4-(4-fluoro-3-methyl-phenyl)-imidazol-1-yl]-ethanol], the IC50 was determined as 340 nM at His-AKT (Full Length) and 3.5 nM on P70S6K (T412E mutant).
Turning to `COCC(C)NCCn1cc(-c2ccc(F)c(C(F)(F)F)c2)nc1C1CCN(c2ncnc(N)c2C(N)=O)CC1` (centres unmarked) [Compound 371, 4-Amino-6-(4-{4-(4-fluoro-3-trifluoromethyl-phenyl)-1-[2-(2-methoxy-1-methyl-ethylamino)-ethyl]-1H-imidazol-2-yl}-piperidin-1-yl)-pyrimidine-5-carboxylic acid amide], the concentration for half-maximal inhibition (IC50) at His-AKT (Full Length) stood at 85 nM; at P70S6K (T412E mutant), 18 nM.
For `Cc1cc(-c2cn(CCNC3CCCC3)c(C3CCN(c4ncnc(N)c4C#N)CC3)n2)ccc1F` [Compound 389, 4-Amino-6-{4-[1-(2-cyclopentylamino-ethyl)-4-(4-fluoro-3-methyl-phenyl)-1H-imidazol-2-yl]-piperidin-1-yl}-pyrimidine-5-carbonitrile], in that order: 0.7 nM and 0.9 nM.
For `NC(=O)c1c(N)ncnc1N1CCC(c2nc(-c3ccc(F)c(C(F)(F)F)c3)cn2C2CCNC2)CC1` (centres unmarked) [Compound 138, 4-amino-6-(4-(4-(4-fluoro-3-(trifluoromethyl)phenyl)-1-(pyrrolidin-3-yl)-1H-imidazol-2-yl)piperidin-1-yl)pyrimidine-5-carboxamide], in that order: 100 nM and 1.7 nM.
The corresponding values for `N#Cc1c(N)ncnc1N1CCC(c2nc(-c3cnoc3)cn2CCN2CCC2)CC1` [Compound 132, 4-amino-6-(4-(1-(2-(azetidin-1-yl)ethyl)-4-(isoxazol-4-yl)-1H-imidazol-2-yl)piperidin-1-yl)pyrimidine-5-carbonitrile] are 220 nM and 23 nM.
`Nc1ncnc(N2CCC(c3nc(-c4ccc(C(F)(F)F)c(F)c4)cn3CCN3CCC3)CC2)c1C1CCC1` [Compound 280]: the figures for the IC50 at His-AKT (Full Length) and at P70S6K (T412E mutant) were 7.3 nM and 6 nM, respectively.
The corresponding values for `Cc1ccc(-c2cn(CCN3CCC3)c(C3CCN(c4ncnc(N)c4C(N)=O)CC3)n2)cc1F` [Compound 344] are 2400 nM and 25 nM.
On to `N#Cc1c(N)ncnc1N1CCC(c2nc(-c3ccnc(C4CC4)c3)cn2CCN2CCC2)CC1` [Compound 319], for which the values for the IC50 at His-AKT (Full Length) and on P70S6K (T412E mutant) were 23 nM and 1.7 nM, respectively.
For `CCOc1c(N)ncnc1N1CCC(c2nc(-c3ccc(F)c(C(F)(F)F)c3)cn2CCN2CCC2)CC1` [Compound 102, 6-(4-(1-(2-(azetidin-1-yl)ethyl)-4-(4-fluoro-3-(trifluoromethyl)phenyl)-1H-imidazol-2-yl)piperidin-1-yl)-5-ethoxypyrimidin-4-amine], the IC50 stood at 4.1 nM on His-AKT (Full Length) and 2.4 nM at P70S6K (T412E mutant).
For `C=C(C)c1c(N)ncnc1N1CCC(c2nc(-c3ccc(F)c(C(F)(F)F)c3)cn2CCN2CCCCC2)CC1` [Compound 212], in that order: 16 nM and 6.7 nM.
The corresponding values for `CCc1c(N)ncnc1N1CCC(c2nc(-c3ccc(F)cc3)cn2CCN2CC(F)C2)CC1` [Compound 200, 5-Ethyl-6-{4-[1-[2-(3-fluoro-azetidin-1-yl)-ethyl]-4-(4-fluoro-phenyl)-1H-imidazol-2-yl]-piperidin-1-yl}-pyrimidin-4-ylamine] are 640 nM and 21 nM.
Take `CCc1c(N)ncnc1N1CCC(c2nc(-c3ccc(F)cc3)cn2CCN2CCC23COC3)CC1` [Compound 204, 5-Ethyl-6-(4-{4-(4-fluoro-phenyl)-1-[2-(6-oxa-1-aza-spiro[3.3]hept-1-yl)-ethyl]-1H-imidazol-2-yl}-piperidin-1-yl)-pyrimidin-4-ylamine]: the half-inhibitory concentration (IC50) at His-AKT (Full Length) turned out to be 3600 nM; at P70S6K (T412E mutant), 37 nM.
The corresponding values for `NC(=O)c1c(N)ncnc1N1CCC(c2nc(-c3cn[nH]c3)cn2CCN2CCC2)CC1` [Compound 145, 4-amino-6-(4-(1-(2-(azetidin-1-yl)ethyl)-4-(1H-pyrazol-4-yl)-1H-imidazol-2-yl)piperidin-1-yl)pyrimidine-5-carboxamide] are 2200 nM and 53 nM.
For `Nc1ncnc(N2CCC(c3nc(-c4ccc(C(F)(F)F)cc4)cn3CCN3CCCC3)CC2)c1C1CCC1` [Compound 259], in that order: 430 nM and 37 nM.
For `CCc1c(N)ncnc1N1CCC(c2nc(-c3ccc(Cl)cc3)cn2CCN2CCCC2)CC1` [Compound 273], the half-maximal inhibitory concentration (IC50) at His-AKT (Full Length) amounted to 190 nM; on P70S6K (T412E mutant), 7.4 nM.
The corresponding values for `Cc1cc(-c2cn(CCN(C)C(C)C)c(C3CCN(c4ncnc(N)c4C#N)CC3)n2)ccc1F` [Compound 379, 4-Amino-6-(4-{4-(4-fluoro-3-methyl-phenyl)-1-[2-(isopropyl-methyl-amino)-ethyl]-1H-imidazol-2-yl}-piperidin-1-yl)-pyrimidine-5-carbonitrile] are 2.7 nM and 0.8 nM.
For the molecule `NC(=O)c1c(N)ncnc1N1CCC(c2nc(-c3ccc(F)c(C(F)(F)F)c3)cn2CCN2CCCC2)CC1` [Compound 331], the concentration for half-maximal inhibition (IC50) on His-AKT (Full Length) turned out to be 15 nM; on P70S6K (T412E mutant), 4.6 nM.
Consider `NC(=O)c1c(N)ncnc1N1CCC(c2nc(-c3ccc(F)c(C(F)(F)F)c3)cn2CC2CNC2)CC1` [Compound 140, 4-amino-6-(4-(1-(azetidin-3-ylmethyl)-4-(4-fluoro-3-(trifluoromethyl)phenyl)-1H-imidazol-2-yl)piperidin-1-yl)pyrimidine-5-carboxamide], for which the IC50 was found to be 27 nM on His-AKT (Full Length) and 2.2 nM on P70S6K (T412E mutant).
As to `Nc1ncnc(N2CCC(c3nc(-c4ccc(F)c(Cl)c4)cn3CCN3CCCC3)CC2)c1C1CCC1` [Compound 262], the IC50 on His-AKT (Full Length) was 4.9 nM; on P70S6K (T412E mutant) it was 4 nM.
For `Cc1cc(-c2cn(CCN(C)C)c(C3CCN(c4ncnc(N)c4C#N)CC3)n2)ccc1F` [Compound 325], in that order: 0.9 nM and 0.5 nM.
Take `CCOc1c(N)ncnc1N1CCC(c2nc(-c3ccnc(C(F)(F)F)c3)cn2CCN2CCC2)CC1` [Compound 116, 6-(4-(1-(2-(azetidin-1-yl)ethyl)-4-(2-(trifluoromethyl)pyridin-4-yl)-1H-imidazol-2-yl)piperidin-1-yl)-5-ethoxypyrimidin-4-amine]: the IC50 at His-AKT (Full Length) came to 8.2 nM; at P70S6K (T412E mutant), 2.4 nM.
For `N#Cc1c(N)ncnc1N1CCC(c2nc(-c3ccc4[nH]ncc4c3)cn2CCN2CCC2)CC1` [Compound 207, 4-Amino-6-{4-[1-(2-azetidin-1-yl-ethyl)-4-(1H-indazol-5-yl)-1H-imidazol-2-yl]-piperidin-1-yl}-pyrimidine-5-carbonitrile], in that order: 105 nM and 22 nM.
For `CNc1ncnc(N2CCC(c3nc(-c4ccc(F)c(C)c4)cn3CC3CNC3)CC2)c1Cl` [Compound 193, (6-{4-[1-Azetidin-3-ylmethyl-4-(4-fluoro-3-methyl-phenyl)-1H-imidazol-2-yl]-piperidin-1-yl}-5-chloro-pyrimidin-4-yl)-methyl-amine], in that order: 5700 nM and 1300 nM.
Consider `CCc1cc(-c2cn(CCN3CCC3)c(C3CCN(c4ncnc(N)c4C(N)=O)CC3)n2)ccn1` [Compound 341], for which the IC50 at His-AKT (Full Length) came to 450 nM; at P70S6K (T412E mutant), 11 nM.
For `CCN(CCn1cc(-c2ccc(F)c(C)c2)nc1C1CCN(c2ncnc(N)c2C(N)=O)CC1)C(C)C` [Compound 351], in that order: 48 nM and 27 nM.
In the case of `CCN(CCn1cc(-c2ccc(F)c(C)c2)nc1C1CCN(c2ncnc(N)c2OC(C)C)CC1)C(C)C` [Compound 302], the IC50 at His-AKT (Full Length) is 6.3 nM; on P70S6K (T412E mutant), 12 nM.
The corresponding values for `Cc1cc(-c2cn(CCNC3CCCC3)c(C3CCN(c4ncnc(N)c4C(N)=O)CC3)n2)ccc1F` [Compound 391, 4-Amino-6-{4-[1-(2-cyclopentylamino-ethyl)-4-(4-fluoro-3-methyl-phenyl)-1H-imidazol-2-yl]-piperidin-1-yl}-pyrimidine-5-carboxylic acid amide] are 5.6 nM and 4 nM.
In the case of `Nc1ncnc(N2CCC(c3nc(-c4ccc(F)c(C(F)(F)F)c4)cn3CCN3CCCC3)CC2)c1Br` [Compound 56], the IC50 was 14 nM at His-AKT (Full Length) and 3.5 nM at P70S6K (T412E mutant).
For `CCc1c(N)ncnc1N1CCC(c2nc(-c3ccc(F)c(F)c3)cn2CCN2CCC3(COC3)C2)CC1` [Compound 202, 6-(4-{4-(3,4-Difluoro-phenyl)-1-[2-(2-oxa-6-aza-spiro[3.4]oct-6-yl)-ethyl]-1H-imidazol-2-yl}-piperidin-1-yl)-5-ethyl-pyrimidin-4-ylamine], the half-inhibitory concentration (IC50) was 89 nM at His-AKT (Full Length) and 9 nM at P70S6K (T412E mutant).
For `Nc1ncnc(N2CCC(c3nc(-c4ccc(F)c(C(F)(F)F)c4)cn3CCN3CCC3)CC2)c1OCC(F)(F)F` [Compound 103, 6-(4-(1-(2-(azetidin-1-yl)ethyl)-4-(4-fluoro-3-(trifluoromethyl)phenyl)-1H-imidazol-2-yl)piperidin-1-yl)-5-(2,2,2-trifluoroethoxy)pyrimidin-4-amine], in that order: 6.6 nM and 4.2 nM.
With `N#Cc1c(N)ncnc1N1CCC(c2nc(-c3cccc(F)c3)cn2CCN2CCCC2)CC1` [Compound 309], the concentration for half-maximal inhibition (IC50) at His-AKT (Full Length) worked out at 21 nM; at P70S6K (T412E mutant) it was 2.6 nM.
Regarding `CCOc1c(N)ncnc1N1CCC(c2nc(-c3ccc(F)c(C(F)(F)F)c3)cn2CCN(C)C)CC1` [Compound 291], the 50% inhibitory concentration (IC50) at His-AKT (Full Length) came to 8 nM; at P70S6K (T412E mutant), 2.6 nM.
As for `CN1CC(Cn2cc(-c3ccc(F)c(C(F)(F)F)c3)nc2C2CCN(c3ncnc(N)c3C(N)=O)CC2)C1` [Compound 156, 4-amino-6-(4-(4-(4-fluoro-3-(trifluoromethyl)phenyl)-1-((1-methylazetidin-3-yl)methyl)-1H-imidazol-2-yl)piperidin-1-yl)pyrimidine-5-carboxamide], the values for the half-maximal inhibitory concentration (IC50) on His-AKT (Full Length) and on P70S6K (T412E mutant) were 81 nM and 4.9 nM, respectively.
For `CCc1c(N)ncnc1N1CCC(c2nc(-c3cccc(C(F)(F)F)c3)cn2CCN2CCC2)CC1` [Compound 277], in that order: 18 nM and 3.2 nM.

In general, IC50 refers to the concentration needed to halve the response being measured.
